Patent US20230087609A1, “USE OF A SOLUBLE GUANYLATE CYCLASE (sGC) STIMULATOR OR OF A COMBINATION OF A sGC STIMULATOR AND AN sGC ACTIVATOR FOR CONDITIONS WHEREIN THE HEME GROUP OF sGC IS OXIDIZED OR WHEREIN sGC IS DEFICIENT IN HEME” (Universiteit Maastricht, priority 2020, published 2023)

Key:
[1] = target: T1, purified human sGC treated with ODQ (oxidized heme) (Homo sapiens, UniProt Q02153); assay: sGC activity of purified human sGC treated with ODQ; assay type: biochemical; settings: 10 μM ODQ, 0.3 μM BAY 58-2667 ± 10 μM BAY 41-2272 (FIG. 7A); ODQ concentration series with 30 μM Bay 41-2272 (FIG. 7B)
T1 construct: purchased EnzoLifeScience, Lörrach, Germany
T1 sequence (Q02153 1-619): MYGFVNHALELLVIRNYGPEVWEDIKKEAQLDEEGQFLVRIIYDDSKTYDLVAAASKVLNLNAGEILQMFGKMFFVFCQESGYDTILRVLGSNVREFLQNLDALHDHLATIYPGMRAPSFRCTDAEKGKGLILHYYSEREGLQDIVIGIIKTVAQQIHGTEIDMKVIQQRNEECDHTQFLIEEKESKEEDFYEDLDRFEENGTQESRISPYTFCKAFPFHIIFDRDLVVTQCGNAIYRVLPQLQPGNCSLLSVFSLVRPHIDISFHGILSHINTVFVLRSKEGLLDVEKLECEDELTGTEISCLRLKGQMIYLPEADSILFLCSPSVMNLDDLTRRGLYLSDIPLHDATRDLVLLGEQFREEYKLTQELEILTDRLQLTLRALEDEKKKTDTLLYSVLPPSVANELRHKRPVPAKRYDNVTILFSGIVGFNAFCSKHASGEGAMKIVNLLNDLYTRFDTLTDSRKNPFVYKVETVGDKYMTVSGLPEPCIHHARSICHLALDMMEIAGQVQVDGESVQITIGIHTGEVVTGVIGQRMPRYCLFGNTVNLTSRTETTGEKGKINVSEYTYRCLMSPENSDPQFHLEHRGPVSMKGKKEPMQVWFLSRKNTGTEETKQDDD
T1 sequence (Q02108 1-690 partner): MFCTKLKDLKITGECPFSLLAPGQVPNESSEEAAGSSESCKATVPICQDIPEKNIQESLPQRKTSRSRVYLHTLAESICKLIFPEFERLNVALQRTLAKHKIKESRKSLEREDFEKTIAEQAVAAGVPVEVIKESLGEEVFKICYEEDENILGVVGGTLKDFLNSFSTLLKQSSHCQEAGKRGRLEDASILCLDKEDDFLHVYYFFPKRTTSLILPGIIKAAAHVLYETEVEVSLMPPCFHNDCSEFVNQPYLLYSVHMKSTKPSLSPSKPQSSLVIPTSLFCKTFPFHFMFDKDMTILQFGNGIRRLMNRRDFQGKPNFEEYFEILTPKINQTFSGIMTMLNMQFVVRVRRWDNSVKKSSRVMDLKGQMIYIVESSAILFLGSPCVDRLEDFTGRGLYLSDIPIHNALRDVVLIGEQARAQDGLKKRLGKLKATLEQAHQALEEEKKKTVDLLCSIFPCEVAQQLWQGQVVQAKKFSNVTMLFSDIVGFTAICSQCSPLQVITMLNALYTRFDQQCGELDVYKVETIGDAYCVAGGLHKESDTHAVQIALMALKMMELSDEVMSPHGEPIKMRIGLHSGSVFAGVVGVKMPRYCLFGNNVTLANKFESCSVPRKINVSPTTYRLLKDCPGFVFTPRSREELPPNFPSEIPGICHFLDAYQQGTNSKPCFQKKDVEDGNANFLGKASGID

[2] = tested on: isolated rat mesenteric arteries; assay: Relaxation of isolated rat mesenteric arteries (myograph)
Description: The animals were killed humanely via CO2 inhalation (95% CO2, 5% O2) followed by cervical dislocation and exsanguination. The required tissues were dissected and placed in ice-cold oxygenated Krebs' solution (composition in mM: NaCl 119, KCl 4.7, MgSO4 1.17, NaHCO3 25, KH2PO4 1.18, CaCl2 2.5, glucose 5.5, EDTA 0.026, pH 7.4). The collected arteries were carefully freed of fat and connective tissue and cut into 2 mm rings.
The segments were then mounted in a small vessel myograph for the measurement of changes in isometric tension. Two 40 μm stainless steel wires were inserted through the lumen of the segment, one attached to an isometric force transducer and the other to a support driven by a micrometer. The vessels were maintained in Krebs' solution at 37° C. in 7 ml myograph chambers and were continuously bubbled with carbogen (95% O2, 5% CO2). Arteries were allowed to equilibrate for a 30 min period under zero force after which their internal diameter was normalised to an equivalent transmural pressure of 100 mmHg. Changes in isometric tension were reordered using a Myograph Interface Model 610 M version 2.2 (AD Instruments, Pty Ltd) and a chart recorder (Yokogawa, Japan), or using a MacLab® (MacLab® data-acquisition system, AD Instruments Pty Ltd.), interfaced with a Macintosh Computer. Following the 30 min equilibration period at optimal resting tension, the vessels were contracted maximally using a potassium depolarising KPSS solution (composition in mM: KCl 123, MgSO4 1.17, KH2PO4 2.37, CaCl2 2.5, glucose, 5.5 and EDTA 0.026). After the maximum contraction reached a plateau, the vessels were washed thoroughly using Krebs' solution and the tension allowed to return to the baseline. The vessels were then pre-contracted to ≈50% maximum contraction using titrated concentration of the thromboxane A2 mimetic U46619 (0.1-100 nM) and a titrated concentration of the al agonist cirazoline (1-100 nM). Subsequently, cumulative (0.5 log unit) concentration response curve to BAY 58-2667 (1 pM-0.1 μM) were constructed in the presence and absence of 100nM BAY 41-2272 (100 nM). All treatments used in our study including the pre-incubation with 10 μM ODQ for 30 min were added before the 50% pre-contraction with cirazoline and U46619 and only one concentration response curve to any vasodilator was constructed in each segment of the blood vessel. At the completion of each concentration response curve, maximal relaxation was achieved by adding nifedipine 10 μM.
Results are expressed as mean±s.e.m, with n representing the number of samples used from separate subjects. Statistical significance was accepted at the P<0.05 level. Relaxation responses to BAY58-2667 were expressed as a percentage reversal of the level of pre-contraction to U46619, with the response to nifedipine 10 μM defined as 100% relaxation. The individual response curves obtained for each vasodilator were fitted using non-linear regressions (Graphpad Prism®, version 5). In-vitro experiments have been performed with n=3 and n=1. Maximal relaxation values (%) at specific concentrations of the compounds were compared. For multiple comparisons, student's t-test or one-way analysis of variance (ANOVA) was followed by Bonferroni's test. • The results of our experiments are represented by the following non-limiting examples.

- sGC activity of sGC with fully oxidized heme on addition of sGC stimulator [1]: still activatable by potentiation
Structure (SMILES): Nc1nc(-c2nn(Cc3ccccc3F)c3ncccc23)ncc1C1CC1 [BAY 41-2272, 5-cyclopropyl-2-[1-(2-fluoro-benzyl)-1H-pyrazolo[3,4-b]pyridin-3-yl]-pyrimidin-4-ylamine]
- relaxation, compound alone ([2]; 0.1 μM BAY 41-2272 alone, pre-contraction with U46619): no relaxation
- effect on Bay 58-2667 relaxation ([2]; nano-molar range): augmented
- effect on DEA/NO (NO donor) relaxation ([2]; nano-molar range): augmented
